# In US10774046B2, “Inhibitors for the treatment of cancer and related methods” (UNIVERSITY OF LOUISVILLE RESEARCH FOUNDATION, INC., priority 2017, dated 2020):
# Tests used:
# LLC xenografts = test: Ki67 immunohistochemistry of tumors; format: in vivo, C57BL/6 mice; conditions: 120 mg/kg by gavage daily, ten days
# Description: Formalin-fixed, paraffin-embedded tissue sections were processed as previously described then incubated with anti-Ki-67 primary antibody (Abcam) overnight, followed by HRP-linked goat anti-rabbit secondary antibody (1:300, Pierce). Sections were developed with 3,3′-diaminobenzidine tetrahydrochloride, counterstained, scanned and analyzed with the positive pixel count algorithm as previously described. Data are depicted as % positive pixels/total pixels±SD.
# [1] = pharmacokinetic profile after IV and oral administration; format: in vivo; conditions: C57BL/6 mice
# Description: The pharmacokinetic profile was determined in female C57BL/6 mice following IV and oral administration of 5MPN. Using only female mice lowered the animal numbers required for meaningful results without issues of potential gender differences in exposure. Eight time points (n=3/time point) were used to determine PK parameters calculated using WinNonLin v5.0. Plasma samples were extracted using acetonitrile and analyzed by LC/MS-MS using a PhenomexSynergi Polar-RP 4 micron 50×2.0 mm column eluted with a biphasic mobile phase (0.5% formic acid in acetonitrile and water).
# PFKFB3 = PFKFB3 (Homo sapiens, UniProt Q16875); test: PFKFB3 kinase activity; format: biochemical; conditions: 10 μM
# Sequence of PFKFB3 (Q16875 whole entry, species assumed): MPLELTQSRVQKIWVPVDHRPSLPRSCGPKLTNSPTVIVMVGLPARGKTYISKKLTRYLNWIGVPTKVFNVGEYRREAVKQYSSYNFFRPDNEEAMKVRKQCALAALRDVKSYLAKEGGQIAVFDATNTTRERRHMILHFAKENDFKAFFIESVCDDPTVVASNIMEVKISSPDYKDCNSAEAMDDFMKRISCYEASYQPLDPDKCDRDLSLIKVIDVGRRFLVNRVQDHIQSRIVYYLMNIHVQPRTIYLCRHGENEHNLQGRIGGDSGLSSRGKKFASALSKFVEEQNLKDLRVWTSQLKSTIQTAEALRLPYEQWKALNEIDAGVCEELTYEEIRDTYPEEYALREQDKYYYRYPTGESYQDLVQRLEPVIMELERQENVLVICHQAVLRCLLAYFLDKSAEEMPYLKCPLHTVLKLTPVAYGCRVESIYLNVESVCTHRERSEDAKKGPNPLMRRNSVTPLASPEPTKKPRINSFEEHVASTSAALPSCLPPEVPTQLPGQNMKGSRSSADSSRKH
# MDA-MB-231 = test: proliferation, viable cell count; format: cell-based, human; conditions: MDA-MB-231, over 48 hours
# From the text: (§1) H460, H1299, H441, H522 and A549 non-small cell lung cancer (NSCLC), MDA-MB-231 (breast), LNCaP (prostatic) and HCT116 (colon) adenocarcinoma and Lewis lung carcinoma (LLC) cell lines were obtained from ATCC and used within 6 months of acquisition. PFKFB4^−/− ear pinna fibroblasts isolated from TamCre/loxP/PFKFB4^−/− mice were immortalized as described previously (Chesney J et al. Fructose-2,6-bisphosphate synthesis by 6-phosphofructo-2-kinase/fructose-2,6-bisphosphatase 4 (PFKFB4) is required for the glycolytic response to hypoxia and tumor growth. Oncotarget 2014 Aug. 30; 5(16):6670-86). Normal bronchial epithelial cells (NHBE) were obtained from Lonza and NHBE cells expressing telomerase, SV40 large T antigen and activated Ras (hT/LT/Ras) were a gift from Dr. B. J. Rollins, Dana Farber Cancer Institute. All cell lines were tested and found negative for mycoplasma (PCR Mycoplasma Detection Kit, ABM). Cell lines were grown in DMEM (A549, LNCaP, MDA-MB-231, LLC and PFKFB4^−/−), RPMI 1640 (H460, H1299, H441, H522) and McCoy's 5A media (HCT116) (all from Invitrogen) containing 10% fetal calf serum (Hyclone). NHBE and hT/LT/Ras cells were grown in BEGM containing SingleQuots (Lonza). All lines were cultured at 37° C. in 5% CO2. In certain experiments, 4-hydroxytamoxifen (4HT, Sigma-Aldrich) was added to PFKFB4^−/− fibroblasts at indicated concentrations.
# (§2) Cells were incubated in 20% trypan blue (Sigma) for 5 minutes. Cells excluding trypan blue were counted using a standard hemocytometer (Hausser Scientific) to determine total numbers of viable cells. Data are expressed as mean±SD of three experiments.
# HCT116 = test: proliferation, viable cell count; format: cell-based, human; conditions: HCT116, over 48 hours
# From the text: as §1, §2
# H1299 = test: proliferation, viable cell count; format: cell-based, human; conditions: H1299, over 48 hours
# From the text: as §1, §2
# LNCaP = test: proliferation, viable cell count; format: cell-based, human; conditions: over 48 hours
# From the text: as §1, §2
# A549 = test: proliferation, viable cell count; format: cell-based, human; conditions: A549, over 48 hours
# From the text: as §1, §2
# H522 = test: proliferation, viable cell count; format: cell-based, human; conditions: H522, over 48 hours
# From the text: as §1, §2
# H441 = test: proliferation, viable cell count; format: cell-based, human; conditions: H441, over 48 hours
# From the text: as §1, §2
# hT/LT/Ras cells = test: cell growth of transformed cells, live cell count; format: cell-based, human; conditions: live cells at 48 hours
# From the text: as §1, with “NHBE and hT/LT/Ras cells were grown in BEGM containing SingleQuots (Lonza). All lines were cultured at 37° C. in 5% CO2. In certain experiments, 4-hydroxytamoxifen (4HT, Sigma-Aldrich) was added to PFKFB4^−/− fibroblasts at indicated concentrations.” left out
# as §2
# LLC cells = test: cell cycle analysis by flow cytometry; format: cell-based, mouse; conditions: LLC cells in vitro, 10 μM 5MPN
# Description: To measure apoptosis, cells were stained with annexin V and propidium iodide and examined as previously described. For example, H460 cells were exposed to increasing concentrations of the PFKFB4 inhibitor (MPN-2), the PFKFB3 inhibitor PFK15 (Tocris) or both and viable cells were counted at 24, 48 and 72 hours. DMSO used as vehicle. For cell cycle experiments, cells were detached, washed with cold PBS and fixed in 70% ethanol (4° C., 30 minutes). The cells then were pelleted by centrifugation, resuspended in PBS containing PI and RNase A, incubated at 37° C. in the dark for 30 minutes and analyzed by flow cytometry (BD FACSCalibur). Data were analyzed using FlowJo software (TREE STAR Inc.). Results were calculated as the mean±SD of three experiments. The effects (Fa values) of the series of concentrations of MPN-2 and PFK-15 were examined individually and in combination at a constant ratio of 1:1.
# cancer cells = test: F26BP measurement in cells; format: cell-based; conditions: increasing concentrations
# Description: Method: In order to measure F26BP, cells were exposed to increasing concentrations of Formula (VIII) and were harvested, washed with PBS, lysed in NaOH/Tris acetate by heating at 80° C. and lysates neutralized to pH 7.2. F26BP content was measured using a coupled enzyme reaction following a modified method of Van Schaftingen (VAN SCHAFTINGEN et al, “A kinetic study of pyrophosphate:fructose-6-phosphate phosphotransferase from potato tubers. Application to a microassay of fructose 2,6-bisphosphate” Eur J Biochem. (1982) Vol. 129, No. 1, pp. 191-195), which is herein incorporated by reference in its entirety. The F26BP concentration was normalized to total cellular protein measured by the bicinchoninic acid assay (BCA, Thermo Scientific).
Compound,Ki67-positive cells (LLC xenografts),oral bioavailability [1],"concentrations reached by intravenous and oral administration ([1]; IV and oral, administered daily)",inhibition of kinase activity (PFKFB3),growth (MDA-MB-231),growth (HCT116),growth (H1299),growth (LNCaP),growth (A549),growth (H522),growth (H441),cell growth of transformed cells (hT/LT/Ras cells),cell cycle distribution (LLC cells),F26BP (normalized to cellular protein) (cancer cells)
"COc1cccc2c(NCCCCCO[N+](=O)[O-])ccnc12 [5MPN, 5-[(8-methoxyquinolin-4-yl)amino]pentyl nitrate]",reduction in Ki67-positive cells,has oral bioavailability,adequate to achieve potentially therapeutic concentrations,did not inhibit,dose-dependent reduction in growth,dose-dependent reduction in growth,dose-dependent reduction in growth,dose-dependent reduction in growth,dose-dependent reduction in growth,dose-dependent reduction in growth,dose-dependent reduction in growth,suppressed,G1 arrest,
"COc1cccc2c(NCCCCCNC(=O)C(F)(F)F)ccnc12 [Formula (VIII), 2,2,2-trifluoro-N-(5-((8-methoxyquinolin-4-yl)amino)pentyl)acetamide]",,,,,,,,,,,,,,dose-dependent decrease
